One data set has as its target apotransferrin (Homo sapiens, UniProt P02787). Particulars: apotransferrin 200 mg/dL, 37° C. 30 min. As to the method:
In order to evaluate binding capacity of the metal ion to apotransferrin, transferrin binding capacity (Unsaturated Iron-Binding Capacity, UIBC) was measured as follows depending on the concentration of iron ion (ferric iron, FeIII+).
Specifically, in order to prepare iron ion aqueous solutions, 3.6 g of FeCl3 (Sigma Aldrich, USA) was dissolved in 400 ml of distilled water with stirring for 20 min or longer, and then the pH of the resulting solution was adjusted to 9 with continuous stirring while a 5M NaOH solution was added dropwise. When a red brownish precipitate appeared, it was stirred at 90° C. for 2 hr and was then centrifuged at 5,000 rpm for 5 min, thus obtaining a ferric hydroxide precipitate, which was then washed with distilled water and dried. The ferric hydroxide in powder form was dissolved in distilled water, yielding ferric hydroxide solutions having concentrations of […]. Each of the ferric hydroxide solutions at individual concentrations was added with 200 mg/dL of apotransferrin (Sigma Aldrich, USA), and mixed in a vortex for 1 min, followed by allowing the reaction between apotransferrin and iron ion to progress at 37° C. for 30 min.
In order to measure the unsaturated iron-binding capacity (UIBC) of apotransferrin, a Ferrozine colorimetric method was used. As the iron standard, ferrous chloride was prepared at a concentration of […] in hydroxylamine hydrochloride, and the reaction solution of apotransferrin and iron was prepared as a test group. Specifically, 2 ml of 0.5M Tris buffer (pH 8) was aliquoted into all test tubes. The blank test tube was filled with 1 ml of distilled water, the standard test tube was filled with 0.5 ml of distilled water and 0.5 ml of the iron standard, and the experimental test tube was filled with 0.5 ml of the reaction solution of apotransferrin and iron ion and 0.5 ml of the iron standard, followed by mixing in a vortex for 1 min.
A spectrophotometer was zeroed at 560 nm, and the absorbance A1 was measured. Next, a 16.6 mM Ferrozine hydroxylamine hydrochloride solution was placed in an amount of […] in each of the test tubes, followed by mixing in a vortex for 1 min. All the test tubes were cultured at 37° C. for 10 min, and the absorbance A2 at 560 nm was measured. The absorbance A560 at 560 nm was calculated by subtracting the absorbance A1 from the absorbance A2.
The unsaturated iron-binding capacity (UIBC) was calculated as follows. UIBC=[standard conc.]−[standard conc.]×Test A560/Standard A560

The subject of data set [1] is NCI-H460-luc2 tumor xenograft. The experiment in a line: Thermal cancer therapy with sensitizer, bioluminescence imaging of tumor size in the last week (Example 1, FIG. 12). The class given is in vivo, BALB/c athymic nude mice. The following applies: i.v. 1 mg/kg metal ion-bound material or 20 mg/kg transferrin, 100 W 10 min, three times per week, four weeks. As to the method: Next, the potential to treat cancer was evaluated using the metal ion-bound material as the sensitizer upon thermal therapy. A lung cancer cell line NCI-H460-luc2 ([…] Sciences) was cultured, and 5×10^6 cells were subcutaneously injected into 6 to 8-week-old female BALB/c athymic nude mice (Damul Science), and the mice were bred for about 10 days so as to grow tumorous tissue to a size of 100 mm^3 or more, yielding the tumor xenograft animal models for the evaluation of cancer treatment effects. […] After 4 hr, thermal treatment was performed three times per week for a total of four weeks using a radio-frequency hyperthermia system (EHY-2000, Oncothermia) with an energy dose of 100 W for 10 min. As such, a non-treated group and a saline-treated group were set as controls. In order to analyze the size of tumorous tissue in the last week, bioluminescence imaging was performed. For bioluminescence of a luciferase-expressing cancer cell line NCI-H460-luc2, D-luciferin (Xenogen, USA) was intraperitoneally injected at a concentration of 150 mg luciferin/kg/d into the mice, the mice were anesthetized through inhalation using a mixture of isoflurane gas and oxygen, and luminous cancer cells were subjected to overlap photographing using a Xenogen imager (IVIS 200), and analyzed using Igor Pro imaging analysis software.

Data set [2] concerns NCI-H460-luc2 tumor xenograft. The data set can be described thus: Thermal cancer therapy with repeated sensitizer dosing, weekly bioluminescence imaging of tumor size over four weeks (Example 1, FIG. 13). The class given is in vivo, BALB/c athymic nude mice. Particulars: i.v. three times per week, 0.1 ml of 0.2 mg/ml (iron dextran, iron sucrose) or 5 mg/ml (transferrin); 100 W 30 min or more; four weeks. As to the method: After 4 hr, thermal treatment for 30 min or more using a radio-frequency hyperthermia system (EHY-2000, Oncothermia) with an energy dose of 100 W was performed for a total of four weeks, and the size of tumorous tissue was monitored every week. […] In the group to which transferrin was administered, 0.1 ml of the transferrin aqueous solution having a concentration of 5 mg/ml was intravenously injected. As such, the non-treated group and the saline-treated group were used as controls.
In order to analyze the size of tumorous tissue, bioluminescence imaging was regularly performed at an interval of one week, and analysis was performed using Igor Pro imaging analysis software.

A short description of data set [3]: In vivo accumulation of metal ion in normal and tumorous tissue, ICP-MS (Test Example 5). The following applies: 1 mg/kg i.v., after 24 hr. The arrangement: species or system BALB/c athymic nude mice; concentration of iron ion (ICP-MS): unit not given here. As to the method: In order to evaluate the accumulation of the administered metal ion in tumorous tissue through in vivo animal testing, tumor xenograft animal models were manufactured as follows. Specifically, a lung cancer cell line NCI-H460-luc2 (Califer Life Sciences) was cultured, and 5×10^6 cells were subcutaneously injected into 6- to 8-week-old female BALB/c athymic nude mice (Damul Science), and the mice were bred for about 10 days so as to grow tumorous tissue to a size of 100 mm^3 or more, yielding the tumor xenograft animal models.
After 24 hr, in order to carry out inductively coupled plasma mass spectrometry (ICP-MS), 1 g of each tissue was ground using a tissue grinder in an ice bath, and 1 ml of the ground solution was dried at −60° C. in a vacuum of 7 μmHg for 24 hr. The dried powder was added with 2 ml of 6N HCl, placed in a sealed glass reactor, and cultured in an incubator at 55° C. After 12 hr or longer, each sample was mixed in a vortex and then centrifuged at 1,000 rpm for 15 min, and the supernatant was dried with nitrogen gas, added with 1 ml of 0.01N HCl, mixed in a vortex, and then centrifuged at 1,000 rpm for 15 min. The supernatant was recovered, and the concentrations of the metal ions in the normal tissue and the tumorous tissue were measured through ICP-MS (Varian 800-MS, Palo Alto, US).

Data set [4] deals with NCI-H460-luc2 tumor xenograft. The experiment in a line: Temperature of normal and tumorous tissue of tumor xenograft mice on application of electromagnetic waves after sensitizer (Example 1, FIGS. 9 to 11). The class given is in vivo, BALB/c athymic nude mice. The following applies: i.v. iron sucrose 1 mg/kg or transferrin 20 mg/kg, 4 hr after administration, 100 W for 3 min. As to the method:
To this end, a lung cancer cell line NCI-H460-luc2 (Califer Life Sciences) was cultured, and 5×10^6 cells were subcutaneously injected into 6 to 8-week-old female BALB/c athymic nude mice (Damul Science), and the mice were bred for about 10 days so as to grow tumorous tissue to a size of 100 mm^3 or more, yielding the tumor xenograft animal models for the evaluation of cancer treatment effects.
As the sensitizing composition for thermal therapy, iron sucrose was prepared in the same manner as in Test Example 1, and 0.1 ml of the iron sucrose aqueous solution having a concentration of 0.2 mg/ml was intravenously injected into the established tumor xenograft mice so as to reach a dose of 1 mg/kg.
As the sensitizing composition for thermal therapy, “iron ion-bound apotransferrin” (transferrin) was prepared in the same manner as in Test Example 3, and 0.1 ml of the transferrin aqueous solution having a concentration of 5 mg/ml was intravenously injected into the established tumor xenograft mice so as to reach a dose of 20 mg/kg.
As the control, saline was administered. 4 hr after administration, electromagnetic waves were applied in an energy dose of 100 W for 3 min using a radio-frequency hyperthermia system (EHY-2000, Oncothermia), and the temperatures of normal tissue and tumorous tissue were measured using a thermal imaging device (E60, Korea Rental, Korea).

The results in this text go back to patent US11752210B2, “Sensitizing composition using electromagnetic waves for thermal therapy of cancers, and cancer therapy using same” (JINIS CO., LTD., priority 2013, dated 2023).

Where two headings read alike, the source gives them in different places.

Sequence of apotransferrin (P02787 20-698): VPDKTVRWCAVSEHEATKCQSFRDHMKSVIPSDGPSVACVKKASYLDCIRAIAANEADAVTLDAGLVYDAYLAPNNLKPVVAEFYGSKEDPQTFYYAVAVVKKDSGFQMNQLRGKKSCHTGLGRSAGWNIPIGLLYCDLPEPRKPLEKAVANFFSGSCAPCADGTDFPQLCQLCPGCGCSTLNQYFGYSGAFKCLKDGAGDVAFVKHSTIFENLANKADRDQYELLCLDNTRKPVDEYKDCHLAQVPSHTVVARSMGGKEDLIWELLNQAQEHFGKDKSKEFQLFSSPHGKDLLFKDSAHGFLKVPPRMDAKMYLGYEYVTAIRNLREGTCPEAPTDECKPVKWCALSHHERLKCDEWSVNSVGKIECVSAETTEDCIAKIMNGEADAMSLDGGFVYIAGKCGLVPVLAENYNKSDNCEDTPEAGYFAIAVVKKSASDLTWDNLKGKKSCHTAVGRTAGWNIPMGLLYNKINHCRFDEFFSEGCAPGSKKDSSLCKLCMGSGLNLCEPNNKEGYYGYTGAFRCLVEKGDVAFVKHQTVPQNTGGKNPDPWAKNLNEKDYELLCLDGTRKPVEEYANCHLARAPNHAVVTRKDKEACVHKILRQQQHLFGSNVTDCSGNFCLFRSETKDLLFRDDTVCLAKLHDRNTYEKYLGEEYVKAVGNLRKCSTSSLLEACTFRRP

Regarding `[Fe+3].[OH-].[OH-].[OH-]` [iron ion, ferric hydroxide], the UIBC on apotransferrin (Iron conc. 10 μg/dL) was 498 µg/dL; on apotransferrin (Iron conc. 50 μg/dL), 481 µg/dL; on apotransferrin (Iron conc. 200 μg/dL) it was 332 µg/dL; on apotransferrin (Iron conc. 500 μg/dL), 119 µg/dL.

Take Iron dextran [reference compound]: in data set [1], the “cancer treatment effects through thermal therapy (size of tumorous tissue, bioluminescence imaging)” value is “excellent”. Moreover, the “growth of cancer upon thermal treatment using electromagnetic waves (bioluminescence imaging)” value in data set [2] is given as “significantly reduced”.

Regarding “ferric hydroxide sucrose complex [Iron sucrose]”, the “Fold increase of iron ion vs saline” value is 2.05 in data set [3] (Brain); 3.08 in data set [3] (Heart); 1.05 in data set [3] (Kidney); 2.26 in data set [3] (Liver); 0.98 in data set [3] (Muscle); 2.99 in data set [3] (Stomach). For the same compound, the “Fold increase of iron ion vs saline” value in data set [3] (Tumor, 1 mg/kg) is reported as at least 3.3; in data set [3] (Tumor, listed as Fe-Sucrose, 1 mg/kg) it was 3.29. Besides, the “concentration of iron ion (ICP-MS)” value is 46.2 ± 8.6 in data set [3] (Brain); 99.2 ± 2.8 in data set [3] (Heart); 59.8 ± 4.1 in data set [3] (Kidney); 168.2 ± 37.3 in data set [3] (Liver); 28.9 ± 22.1 in data set [3] (Muscle); 83.1 ± 27.7 in data set [3] (Stomach). In data set [3] (Tumor), the “concentration of iron ion (ICP-MS)” value is on record as 44.4 ± 3.9. In addition, the “changes in the temperature before and after the application of electromagnetic waves” value in data set [4] (normal tissue) came out at 1 °C; in data set [4] (tumorous tissue), 1.9 °C. Further, in data set [1], the “cancer treatment effects through thermal therapy (size of tumorous tissue, bioluminescence imaging)” value is “excellent”. Besides, in data set [2], the “growth of cancer upon thermal treatment using electromagnetic waves (bioluminescence imaging)” value was “significantly reduced”.
